Laboratory results published in article PMC5532286, “In silico, in vitro, X-ray crystallography, and integrated strategies for discovering spermidine synthase inhibitors for Chagas disease” (Scientific Reports, 2017).
Where two headings read alike, the source gives them in different places.

Legend:
[1] = target: T1, TcSpdSyn (Trypanosoma cruzi, UniProt Q4DA73); assay: biochemical; format: biochemical; conditions: for Hill (4PL curve fitting parameter) / Max (4PL curve fitting parameter, inhibition%) / min (4PL curve fitting parameter, inhibition%) / LoggedX50 (4PL curve fitting parameter): Supplementary Table 3; for LoggedX50 (4PL curve fitting parameter): Log10 of X50
T1 sequence (Q4DA73 entry or part of it): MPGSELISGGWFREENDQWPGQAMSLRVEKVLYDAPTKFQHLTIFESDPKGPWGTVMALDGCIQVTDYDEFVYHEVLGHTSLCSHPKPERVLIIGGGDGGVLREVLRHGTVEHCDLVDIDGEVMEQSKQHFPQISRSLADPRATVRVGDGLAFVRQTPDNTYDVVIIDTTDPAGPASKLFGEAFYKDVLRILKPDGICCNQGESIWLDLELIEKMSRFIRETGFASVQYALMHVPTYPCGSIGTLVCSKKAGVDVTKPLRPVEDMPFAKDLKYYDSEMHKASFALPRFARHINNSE
Protocol: To identify TcSpdSyn inhibitors, we performed an in vitro enzyme inhibition assay on 176 compounds sourced from the chemical compound library at Astellas Pharma.
The TcSpdSyn inhibition assay was performed essentially as previously[27] described. Briefly, the assay was an enzyme-coupled assay incorporating spermidine/spermine N(1)-acetyltransferase 1 (SSAT1). 7-Diethylamino-3-(4-maleimidylphenyl)-4-methylcoumarin (CPM) (cat. D-346, Thermo Fischer Scientific) was used to measure the coenzyme A produced by the SSAT1 reaction. […] The fluorescence signal was then detected in a plate reader (Paradigm, Molecular Devices Inc.) with excitation at 405 nm and emission at 530 nm. Each IC50 value was measured using eight different concentrations in quadruplicate. […] Compounds 1, 3, and 4 were used in their salt forms, whereas compound 2 was used in its free form. The corresponding salts were oxalic acid for compound 1 and HCl for compounds 3 and 4. These compounds were dissolved in dimethyl sulfoxide (DMSO), and the maximum final DMSO concentration in the assays was 1.3%.
Supplementary Figure 3. The fitting curve for IC50 calculation of the compounds on Table 1 (Compounds 1, 2, 3, 4, and 4MCHA correspond to (a), (b), (c), (d) and (e), respectively). The vertical line and horizontal axis's represent inhibition% for TcSpdSyn and compound concentration. The closed circles show the inhibition% measured at each dose. The error bars indicate the standard error of the inhibition% measured at each dose. For curve fitting, the following four paramter logoistic (4PL) model1 is used. The paramter […]

[2] = target: T1, TcSpdSyn; design: method as in PMID 26327378; conditions: cited from earlier work

SMILES	IC50 [1]	Hill (4PL curve fitting parameter) [1]	Max (4PL curve fitting parameter, inhibition%) [1]	min (4PL curve fitting parameter, inhibition%) [1]	LoggedX50 (4PL curve fitting parameter) [1]	IC50 ([1]; read-out: IC50 for TcSpdSyn)	IC50 [2]
NCCc1ccccc1F [Compound 1, 2-(2-Fluorophenyl)ethanamine]	124 µM	0.90	100.00	0.00	2.09		
O=c1nc(Nc2nc(O)nc(O)n2)sc2ccccc12 [Compound 2, 2-[(4,6-dihydroxy-1,3,5-triazin-2-yl)amino]-4H-1,3-benzothiazin-4-one]		1.27	100.00	0.00	1.46	28 µM	
CCOc1ccc2c(c1)c(CCN)cn2CC [Compound 3, 2-(5-Ethoxy-1-ethyl-1H-indol-3-yl)ethanamine]	113 µM	1.44	100.00	0.00	2.05		
NCCc1ccc(O)c(O)c1 [Compound 4, 4-(2-Aminoethyl)-1,2-benzenediol]		1.03	100.00	0.00	1.82	66 µM	
C[C@H]1CC[C@H](N)CC1 [Compound 4MCHA, trans-4-methylcyclohexylamine, reference compound]		1.01	100.00	0.00	0.29	1.9 µM	1.7 µM
